Common to all, as to format: biochemical
Assay [1] addresses KAT7+JADE1+EAF6+ING5 4 protein complex (Homo sapiens (Human), UniProt O95251). In words: KAT7 JADE1 assay (SAMDI-MS acetylation of H3 1-21 peptide). The conditions noted are these: Morrison equation fit; replicate number in parentheses; read-out: KAT7 JADE1 Ki (nM) (replicate number).
The target in another assay is KAT8 Full length enzyme (Homo sapiens (Human), UniProt Q9H7Z6). In words: KAT8 assay (SAMDI-MS acetylation of H3 1-21 peptide). The conditions noted are these: Morrison equation fit; replicate number in parentheses; read-out: KAT8 Ki (nM) (replicate number).
A further assay has as its target KAT6A Full length enzyme (Homo sapiens (Human), UniProt Q92794). Nature of the assay: KAT6A assay (SAMDI-MS acetylation of H3 1-21 peptide). The conditions noted are these: Morrison equation fit; replicate number in parentheses; read-out: KAT6A Ki (nM) (replicate number).

Molecules are shown by their SMILES.

KAT6A Full length enzyme, sequence (Q92794 other isoform, or with tags, fused parts or gaps): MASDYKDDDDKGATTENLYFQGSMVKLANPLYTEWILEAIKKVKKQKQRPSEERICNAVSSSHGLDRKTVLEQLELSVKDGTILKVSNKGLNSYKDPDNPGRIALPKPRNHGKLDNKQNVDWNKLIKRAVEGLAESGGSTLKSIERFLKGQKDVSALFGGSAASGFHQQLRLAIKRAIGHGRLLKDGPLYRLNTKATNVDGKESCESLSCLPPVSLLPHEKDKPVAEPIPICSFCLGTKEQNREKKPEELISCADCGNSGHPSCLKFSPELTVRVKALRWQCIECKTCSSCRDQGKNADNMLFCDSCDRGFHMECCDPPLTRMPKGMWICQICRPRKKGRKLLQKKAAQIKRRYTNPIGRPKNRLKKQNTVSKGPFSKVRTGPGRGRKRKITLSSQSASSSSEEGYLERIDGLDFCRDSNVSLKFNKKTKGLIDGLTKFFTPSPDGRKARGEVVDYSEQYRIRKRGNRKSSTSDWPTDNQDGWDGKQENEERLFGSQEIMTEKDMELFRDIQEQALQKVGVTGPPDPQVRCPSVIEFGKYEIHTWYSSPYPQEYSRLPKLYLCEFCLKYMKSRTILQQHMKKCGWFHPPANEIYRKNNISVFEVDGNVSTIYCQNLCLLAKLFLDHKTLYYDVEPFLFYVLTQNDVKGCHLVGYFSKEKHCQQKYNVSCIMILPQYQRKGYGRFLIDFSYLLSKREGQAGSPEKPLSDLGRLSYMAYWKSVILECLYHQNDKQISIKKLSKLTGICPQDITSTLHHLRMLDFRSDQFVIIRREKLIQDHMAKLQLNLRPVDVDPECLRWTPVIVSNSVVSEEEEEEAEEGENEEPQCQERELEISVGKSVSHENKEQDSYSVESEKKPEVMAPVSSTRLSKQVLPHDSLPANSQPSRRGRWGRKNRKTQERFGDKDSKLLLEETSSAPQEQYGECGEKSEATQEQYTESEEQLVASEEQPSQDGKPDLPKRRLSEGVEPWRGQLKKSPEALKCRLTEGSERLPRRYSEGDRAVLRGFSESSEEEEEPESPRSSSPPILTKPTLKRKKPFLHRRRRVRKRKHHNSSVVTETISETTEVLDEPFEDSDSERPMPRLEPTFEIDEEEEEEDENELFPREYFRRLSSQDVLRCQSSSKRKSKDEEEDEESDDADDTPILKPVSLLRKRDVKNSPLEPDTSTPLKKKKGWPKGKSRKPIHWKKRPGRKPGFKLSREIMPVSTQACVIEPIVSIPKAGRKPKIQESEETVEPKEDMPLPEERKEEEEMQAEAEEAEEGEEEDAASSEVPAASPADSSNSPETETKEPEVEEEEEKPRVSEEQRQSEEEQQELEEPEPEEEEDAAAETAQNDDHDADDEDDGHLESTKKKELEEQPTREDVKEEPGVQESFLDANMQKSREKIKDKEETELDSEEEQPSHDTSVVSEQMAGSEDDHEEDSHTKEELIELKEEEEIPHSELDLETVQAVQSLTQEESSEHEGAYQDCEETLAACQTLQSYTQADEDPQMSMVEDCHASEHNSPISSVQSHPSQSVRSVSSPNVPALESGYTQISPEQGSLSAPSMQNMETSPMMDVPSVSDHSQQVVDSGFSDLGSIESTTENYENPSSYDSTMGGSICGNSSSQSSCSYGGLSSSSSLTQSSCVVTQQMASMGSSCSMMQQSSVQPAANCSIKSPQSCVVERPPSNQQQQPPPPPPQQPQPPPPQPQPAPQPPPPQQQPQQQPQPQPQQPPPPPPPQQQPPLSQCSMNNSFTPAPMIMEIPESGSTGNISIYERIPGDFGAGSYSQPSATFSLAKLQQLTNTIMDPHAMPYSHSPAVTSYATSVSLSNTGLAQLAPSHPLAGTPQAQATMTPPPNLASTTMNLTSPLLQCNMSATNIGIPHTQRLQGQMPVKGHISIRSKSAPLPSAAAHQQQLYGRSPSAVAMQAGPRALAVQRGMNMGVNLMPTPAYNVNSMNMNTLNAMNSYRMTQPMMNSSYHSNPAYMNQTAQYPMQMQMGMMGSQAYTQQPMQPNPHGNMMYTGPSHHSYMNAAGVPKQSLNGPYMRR
KAT8 Full length enzyme, sequence (Q9H7Z6 whole entry): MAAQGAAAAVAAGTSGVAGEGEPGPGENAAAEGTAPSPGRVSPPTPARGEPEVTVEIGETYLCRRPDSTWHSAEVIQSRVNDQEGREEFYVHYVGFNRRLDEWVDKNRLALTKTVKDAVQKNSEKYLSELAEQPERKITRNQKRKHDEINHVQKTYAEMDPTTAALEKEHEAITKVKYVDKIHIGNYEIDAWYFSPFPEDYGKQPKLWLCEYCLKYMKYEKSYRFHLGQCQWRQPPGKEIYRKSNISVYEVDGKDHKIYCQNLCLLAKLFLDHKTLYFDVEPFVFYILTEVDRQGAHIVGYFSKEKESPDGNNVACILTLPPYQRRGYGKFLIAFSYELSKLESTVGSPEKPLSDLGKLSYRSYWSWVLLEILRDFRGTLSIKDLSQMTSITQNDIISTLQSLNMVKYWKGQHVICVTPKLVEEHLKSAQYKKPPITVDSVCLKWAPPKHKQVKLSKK

Regarding `COc1cc2c(NS(=O)(=O)c3c(OC)cc(-c4nccc(C)n4)cc3OC)noc2cc1Nc1cc(C2CC2)n[nH]1` [Example 214, N-{6-[(3-cyclopropyl-1H-pyrazol-5-yl)amino]-5-methoxy-1,2-benzoxazol-3-yl}-2,6-dimethoxy-4-(4-methylpyrimidin-2-yl)benzene-1-sulfonamide], the inhibition constant (Ki) in assay [1] was found to be 4.3 nM; on KAT8 Full length enzyme, 1720 nM; on KAT6A Full length enzyme it was 0.7 nM.
For the molecule `COc1cc2c(NS(=O)(=O)c3c(OC)cc(-c4ccc(C)cn4)cc3OC)noc2cc1Nc1cc(C2CC2)n[nH]1` [Example 215, N-{6-[(3-cyclopropyl-1H-pyrazol-5-yl)amino]-5-methoxy-1,2-benzoxazol-3-yl}-2,6-dimethoxy-4-(5-methylpyridin-2-yl)benzene-1-sulfonamide], the Ki in assay [1] was 4.2 nM; at KAT8 Full length enzyme it was 994 nM; at KAT6A Full length enzyme it was 0.4 nM.
As to `COc1cc2c(NS(=O)(=O)c3c(OC)cc(-c4cccn(C)c4=O)cc3OC)noc2cc1Nc1cc(C2CC2)n[nH]1` [Example 221, N-{6-[(3-cyclopropyl-1H-pyrazol-5-yl)amino]-5-methoxy-1,2-benzoxazol-3-yl}-2,6-dimethoxy-4-(1-methyl-2-oxo-1,2-dihydropyridin-3-yl)benzene-1-sulfonamide], the Ki in assay [1] stood at 6.2 nM; at KAT8 Full length enzyme, 1490 nM; on KAT6A Full length enzyme it was 0.7 nM.
As to `CCc1cc(Nc2cc3onc(NS(=O)(=O)c4c(OC)cc(-c5cccc(C)n5)cc4OC)c3cc2OC)[nH]n1` [Example 231, N-{6-[(3-ethyl-1H-pyrazol-5-yl)amino]-5-methoxy-1,2-benzoxazol-3-yl}-2,6-dimethoxy-4-(6-methylpyridin-2-yl)benzene-1-sulfonamide], the Ki in assay [1] is 8.8 nM; at KAT8 Full length enzyme, 859 nM; at KAT6A Full length enzyme, 1.1 nM.
On the same counts, the results for `CCc1cc(Nc2cc3onc(NS(=O)(=O)c4c(OC)cc(-c5cnc(C)cn5)cc4OC)c3cc2OC)[nH]n1` [Example 232, N-{6-[(3-ethyl-1H-pyrazol-5-yl)amino]-5-methoxy-1,2-benzoxazol-3-yl}-2,6-dimethoxy-4-(5-methylpyrazin-2-yl)benzene-1-sulfonamide] are 6.4 nM, 2620 nM and 0.6 nM.
As to `CCc1cc(Nc2cc3onc(NS(=O)(=O)c4c(OC)cc(-c5nccc(C)n5)cc4OC)c3cc2OC)[nH]n1` [Example 233, N-{6-[(3-ethyl-1H-pyrazol-5-yl)amino]-5-methoxy-1,2-benzoxazol-3-yl}-2,6-dimethoxy-4-(4-methylpyrimidin-2-yl)benzene-1-sulfonamide], the Ki in assay [1] amounted to 8.9 nM; at KAT8 Full length enzyme, 2000 nM; at KAT6A Full length enzyme it was 1.7 nM.
In the same order, the values of `CCc1cc(Nc2cc3onc(NS(=O)(=O)c4c(OC)cc(-c5ncc(C)cn5)cc4OC)c3cc2OC)[nH]n1` [Example 234, N-{6-[(3-ethyl-1H-pyrazol-5-yl)amino]-5-methoxy-1,2-benzoxazol-3-yl}-2,6-dimethoxy-4-(5-methylpyrimidin-2-yl)benzene-1-sulfonamide] are 8.5 nM, 1680 nM and 1 nM.
In the same order, the values of `CCc1cc(Nc2cc3onc(NS(=O)(=O)c4c(OC)cc(-c5ccc(C)nn5)cc4OC)c3cc2OC)[nH]n1` [Example 235, N-{6-[(3-ethyl-1H-pyrazol-5-yl)amino]-5-methoxy-1,2-benzoxazol-3-yl}-2,6-dimethoxy-4-(6-methylpyridazin-3-yl)benzene-1-sulfonamide] are 6 nM, 2360 nM and 0.8 nM.
For `CCc1cc(Nc2cc3onc(NS(=O)(=O)c4c(OC)cc(-c5ccc(C)cn5)cc4OC)c3cc2OC)[nH]n1` [Example 236, N-{6-[(3-ethyl-1H-pyrazol-5-yl)amino]-5-methoxy-1,2-benzoxazol-3-yl}-2,6-dimethoxy-4-(5-methylpyridin-2-yl)benzene-1-sulfonamide], the Ki in assay [1] was 3.5 nM; at KAT8 Full length enzyme, 364 nM; at KAT6A Full length enzyme it was 0.4 nM.

A word on the Ki: it is the equilibrium dissociation constant of an inhibitor or competing ligand from its target.

(Values after US20250122183A1 (Pfizer Inc., priority 2023, published 2025).)
